Measured values: patent publication US12077768B2, “Plants having increased tolerance to herbicides” (BASF AGRO B.V., priority 2013, dated 2024)
Where two headings read alike, the source gives them in different places.

Columns and labels:
[1] = system: mutated PPO sequences (e.g. SEQ ID NOs: 1, 30, 31, 11, 37, and 117) as wildtype or with respective mutations, expressed in leaf discs; assay: Herbicide tolerance of transiently transformed tobacco leaf discs expressing wildtype or mutated PPO: tolerance factors from IC50 of PSII yield inhibition versus empty vector; type: cell-based, Nicotiana benthamiana; details: 48 h herbicide treatment
[2] = system: empty vector-transformed leaf discs; assay: PSII yield inhibition (chlorophyll fluorescence, imaging PAM) in empty vector-transformed tobacco leaf discs; type: cell-based; details: Nicotiana benthamiana, read-out: IC50 of PSII yield inhibition

Compound: C#CCN1C(=O)C(F)(F)Oc2cc(F)c(-n3c(=O)n(C)c(=S)n(C)c3=O)cc21 [1,5-dimethyl-6-thioxo-3-(2,2,7-trifluoro-3-oxo-4-(prop-2-ynyl)-3,4-dihydro-2H-benzo[b][1,4]oxazin-6-yl)-1,3,5-triazinane-2,4-dione]
- Tolerance factor (IC50 of PSII yield inhibition, transformed versus empty vector-transformed leaf discs) ([1]; Bn_PPO2_A_L371E_F394M, Brassica napus, SEQ ID 117): 10
- Tolerance factor (IC50 of PSII yield inhibition, transformed versus empty vector-transformed leaf discs) ([1]; Bn_PPO2_A_L371E_F394V, Brassica napus, SEQ ID 117): 13
- Tolerance factor (IC50 of PSII yield inhibition, transformed versus empty vector-transformed leaf discs) ([1]; Bn_PPO2_A_L371Q_F394M, Brassica napus, SEQ ID 117): 10
- Tolerance factor (IC50 of PSII yield inhibition, transformed versus empty vector-transformed leaf discs) ([1]; Bn_PPO2_A_L371Q_F394V, Brassica napus, SEQ ID 117): 14
- Tolerance factor (IC50 of PSII yield inhibition, transformed versus empty vector-transformed leaf discs) ([1]; Bn_PPO2_A_R99A_F394V, Brassica napus, SEQ ID 117): 1
- Tolerance factor (IC50 of PSII yield inhibition, transformed versus empty vector-transformed leaf discs) ([1]; Bn_PPO2_A_wt, Brassica napus, SEQ ID 117): 1
- Tolerance factor (IC50 of PSII yield inhibition, transformed versus empty vector-transformed leaf discs) ([1]; Gm_PPO2_L367E_F390M, Glycine max, SEQ ID 11): 50
- Tolerance factor (IC50 of PSII yield inhibition, transformed versus empty vector-transformed leaf discs) ([1]; Gm_PPO2_L367E_F390V, Glycine max, SEQ ID 11): 15
- Tolerance factor (IC50 of PSII yield inhibition, transformed versus empty vector-transformed leaf discs) ([1]; Gm_PPO2_L367Q_F390M, Glycine max, SEQ ID 11): 14
- Tolerance factor (IC50 of PSII yield inhibition, transformed versus empty vector-transformed leaf discs) ([1]; Gm_PPO2_L367Q_F390V, Glycine max, SEQ ID 11): 26
- Tolerance factor (IC50 of PSII yield inhibition, transformed versus empty vector-transformed leaf discs) ([1]; Gm_PPO2_R98A_F390V, Glycine max, SEQ ID 11): 14
- Tolerance factor (IC50 of PSII yield inhibition, transformed versus empty vector-transformed leaf discs) ([1]; Gm_PPO2_wt, Glycine max, SEQ ID 11): 1
- Tolerance factor (IC50 of PSII yield inhibition, transformed versus empty vector-transformed leaf discs) ([1]; Os_PPO2_L374E_F397M, Oryza sativa, SEQ ID 37): 2454
- Tolerance factor (IC50 of PSII yield inhibition, transformed versus empty vector-transformed leaf discs) ([1]; Os_PPO2_L374E_F397V, Oryza sativa, SEQ ID 37): 43
- Tolerance factor (IC50 of PSII yield inhibition, transformed versus empty vector-transformed leaf discs) ([1]; Os_PPO2_L374Q_F397M, Oryza sativa, SEQ ID 37): 14
- Tolerance factor (IC50 of PSII yield inhibition, transformed versus empty vector-transformed leaf discs) ([1]; Zm_PPO2_L410E_F433M, Zea mays, SEQ ID 30, 31): 8766
- Tolerance factor (IC50 of PSII yield inhibition, transformed versus empty vector-transformed leaf discs) ([1]; Zm_PPO2_L410Q_F433M, Zea mays, SEQ ID 30, 31): 385
- Tolerance factor (IC50 of PSII yield inhibition, transformed versus empty vector-transformed leaf discs) ([1]; Zm_PPO2_L410Q_F433V, Zea mays, SEQ ID 30, 31): 15
- Tolerance factor (IC50 of PSII yield inhibition, transformed versus empty vector-transformed leaf discs) ([1]; Zm_PPO2_R130A_F433V, Zea mays, SEQ ID 30, 31): 8766
- IC50 ([2]; empty vector-transformed leaf discs, treated for 48 h): 11 nM

Compound: CC(C)N(C)S(=O)(=O)NC(=O)c1cc(-n2c(=O)cc(C(F)(F)F)n(C)c2=O)c(F)cc1Cl [Saflufenacil, saflufenacil]
- IC50 ([2]; 48 h): 110 nM
